Source: patent publication US11622975B2, “Compositions and methods for improved honey bee health” (priority 2019, dated 2023)

Experiments:
Assay type in all cases: in vivo, Apis mellifera
[1] = test system: glutathione-S-transferase S1 (GSTS1); experiment: Transcript levels of honey bee detoxification gene (RT-qPCR); settings: clothianidin plus 10 μg/bee MBCD versus pesticide only, after 3 days of feeding
Procedure: Bees receiving clothianidin were compared to bees receiving the pesticide with the addition of 1 μg or 10 μg/bee MBCD after 3 days of feeding. One-way ANOVA with Tukey multiple comparisons was performed to determine any statistical significance (p<0.05 for Clothianidin versus Clothianidin+10 μg/bee MBCD). The “*” denotes the sample chosen as the 2^−ΔΔCT calibrator. […] Pesticides removed from the immediate environment results in less energy dedicated to detoxification and excretion.
(§1) The presence of DWV and Varroa destructor was determined as follows. Total RNA was extracted from whole body 12 individual honey bees using the TRIzol Reagent® (available from Thermo Fisher Scientific, Waltham, Mass.) by manufacturers specifications, and stored at −80° C. […] Transcript levels (RT-qPCR analysis) were quantified using the Brilliant III Ultra-Fast SYBR Green® QPCR Master Mix (Agilent Technologies, Inc., Santa Clara, Calif.) on a CFX384 Touch Real Time PCR Detection System (Bio-Rad Laboratories, Inc., Hercules, Calif.). […] For the detection and quantification of negative stranded bee viruses, replication intermediates, TAG-DWV primers were substituted for random primers or oligos (see e.g., Boncristiani et al., 2009). The fold difference in viral concentration among different treatment groups was determined using the comparative Ct method (2^−ΔΔCT method) (see e.g., Livak & Schmittgen, 2001). […]

[2] = test system: Deformed wing virus (DWV); experiment: Viral load (RT-qPCR) in virus-infected honey bees after MBCD treatment; settings: 10 μg/bee MBCD; for decrease in DWV (+) sense viral genome: versus untreated infected bees
Procedure: The presence of DWV and Varroa destructor was determined as follows. Total RNA was extracted from whole body 12 individual honey bees using the TRIzol Reagent® (available from Thermo Fisher Scientific, Waltham, Mass.) by manufacturers specifications, and stored at −80° C. First-strand cDNA was synthesized using the Superscript III Reverse Transcriptase (available in a kit from Thermo Fisher Scientific). Briefly, each reaction contained: 3 μl total bee RNA (˜1 μg/μl), 1 μl of 10 mM dNTPs, 1 μl random primers (0.15 μg/μl), 1 μL of Oligo(dT), 1 μl of 0.1 M DTT (0.1 M), 4 μl 5×First-Strand Buffer, 1 uL of 200 U/μL RnaseOUT, 1 μl of 200 U/μl SuperScript III Reverse Transcriptase, and 7 μl Nuclease-free water. The reaction mixture was incubated at 25° C. for 5 min, 55° C. for 2 hrs, and 70° C. for 15 min, then stored at −20° C. until use. Transcript levels (RT-qPCR analysis) were quantified using the Brilliant III Ultra-Fast SYBR Green® QPCR Master Mix (Agilent Technologies, Inc., Santa Clara, Calif.) on a CFX384 Touch Real Time PCR Detection System (Bio-Rad Laboratories, Inc., Hercules, Calif.). Samples were incubated at 95° C. for 5 min, followed by 40 cycles of 95° C. for 20 s, 59° C. for 20 s, and 72° C. for 20 s. Thereafter, a melt curve analysis from 65° C. to 95° C. was performed to confirm product specificity. For the detection and quantification of negative stranded bee viruses, replication intermediates, TAG-DWV primers were substituted for random primers or oligos (see e.g., Boncristiani et al., 2009). The fold difference in viral concentration among different treatment groups was determined using the comparative Ct method (2^−ΔΔCT method) (see e.g., Livak & Schmittgen, 2001). Calibrators were chosen as the highest average treatment ΔCt value for each experiment.
Emerging bees that had non-deformed wings (i.e., asymptomatic) were selected for a cage study (n=30 bees per cage & 6 replicate cages per treatment). […] Virally infected untreated bees were compared to bees fed 10 μg/bee MBCD in 50% sucrose solution. In FIG. 6A, DWV (+) sense viral genome titers were compared 3 and 6 days after treatment. An unpaired, 2-tailed Student's T-Test was performed to determine statistical significance (p<0.05 at 3 days feeding; N.S.=Non-significant 6 days after treatment). In FIG. 6B, DWV (−) sense replicative strand titers were compared 3 and 6 days after treatment. An unpaired, 2-tailed Student's T-Test was performed to determine statistical significance (p<0.0001 for 3 days post treatments; p=0.049 for 6 days post treatment). The “★” denotes the sample chosen as the 2^−ΔΔCT calibrator and bars denote standard error.

[3] = test system: honey bees infected with Deformed wing virus; experiment: Survival of virus-infected honey bees after MBCD treatment; settings: 10 μg/bee MBCD in 50% sucrose, untreated 6 days
Procedure: as §1, with “C. First-strand cDNA was synthesized using the Superscript III Reverse Transcriptase (available in a kit from Thermo Fisher Scientific).” for “C.”
Untreated bees fed only 50% sucrose were compared to bees receiving 10 μg/bee MBCD in 50% sucrose (FIG. 7). […] Bees were measured 3 (FIG. 8A) and 6 (FIG. 8B) days post feeding. […]

## methyl-β-cyclodextrin [MBCD]
[1]
  decrease in GSTS1 transcript level: 1.5 fold
[2]; 3 days after treatment
  decrease in DWV (+) sense viral genome: ~2 fold
[2]; 3 days post treatment
  decrease in DWV (−) sense replicative strand: approximately 3 fold
[2]; 6 days post treatment
  decrease in DWV (−) sense replicative strand: ~2 fold
  decrease in DWV (+) sense viral genome: non-significant decrease
[3]
  median lifespan: 9 days
